Laboratory results reported in paper PMC12472621, “Excavating Precursors from Herb Pairs Polygala tenuifolia and Acori tatarinowii: Synthesis and Anticonvulsant Activity Evaluation of 3,4,5-Trimethoxycinnamic Acid (TMCA) Piperazine Amide Derivatives” (Pharmaceuticals, 2025).
Read-outs that look alike come from different tables or passages of the source.

Tests used:
scPTZ-induced seizures [1] = test: Pentylenetetrazole (PTZ)-induced seizure test (scPTZ); type: in vivo; settings: 100 mg/kg i.p., PTZ 85 mg/kg s.c., mice
Procedure: (§1) Male Kunming mice (23–28 g) were maintained under controlled conditions with ad libitum access to standard pellet diet and water. Test compounds were formulated immediately prior to administration in normal saline containing 0.5% Tween-80. Our experiment was authorized by the Institutional Animal Care and Use Committee of Shaanxi University of Chinese Medicine (animal ethics certificate number: SUCMDL20210309027).
Seizures were induced by subcutaneous (s.c.) administration of PTZ (85 mg/kg in 1% v/v Tween-80/0.9% NaCl), 30 min after compound treatment. This dose produces clonic seizures (≥5 s duration) in 97% of naive mice. Latency to seizure onset was recorded during continuous observation.

[2] = system: maximal electroshock (MES) induced seizures; test: Maximal electroshock (MES) test; type: in vivo, mice; settings: Mus musculus, ip
Source text: as §1
The MES test carried out following the method of Swinyard. A 60 Hz current (50 mA; 0.25 s duration) was delivered via corneal electrodes using a YSD-4G electro convulsion meter (Zhenghua Instruments, Huaibei, China, SN: ZH0056232). […] Test compounds were suspended in an identical vehicle. Protection was defined as abolition of tonic hindlimb extension.

mice [3] = test: Acute neurotoxicity screening (rotarod test); type: in vivo; settings: i.p., 30 min post-administration, 95% confidence intervals in parentheses
Procedure: as §1
(§2) Neurotoxicity was assessed via a rotarod test. Mice were trained to maintain balance on a rotating rod (diameter: 4 cm; 24 rpm). Trained animals received i.p. injections of test compounds or reference drugs. At 30 min post-administration, neurologic impairment was defined as failure to remain on the rod for 3 min (≥3 falls within the testing period). Data were used to calculate TD50 values.

[4] = Acute neurotoxicity screening (rotarod test); type: in vivo, mice; settings: male, Kunming, mouse, in vivo, ip, 30 min post-administration, 95% confidence intervals in parentheses
Procedure: as §1, §2

LDH enzyme = test: In vitro LDH assay; type: biochemical
Procedure: Employing the commercial LDH enzyme (Solarbio Life Science, Beijing, China, CAS:9001-60-9, Lot. Document No. 14240222001) includes a colorimetric assay kit designed to assess the synthesized substances’ capacity to suppress the LDH enzyme, using established techniques with slight alterations. In summary, a 96-well microplate was filled with 30 μL of LDH enzyme (300 U/mL) and 70 μL of the inhibitor mixture (0.1 mM in final concentration). Following a 10 min pre-incubation process at ambient temperature, […] of NADH (0.2 mM) was introduced. Subsequently, each well received 40 μL of phosphate buffer (20 mM, pH 6.8), reaching a total volume of 250 μL, followed by a 10 min incubation of the assay plate at 28 °C. Subsequently, […] absorbance was gauged at 340 nm utilizing a SpectraMax 190 Absorbance Microplate Reader (Molecular Devices, San Jose, CA, USA). […] In the initial screening, the level of suppression by the test substances was denoted as a percentage (%). The calculation for the LDH inhibition ratio was as follows:Inhibition (%) = [(Asample − Ablank)/Acontrol] × 100%
Asample denotes the OD340 absorbance of test compound and Ablank is the OD340 absorbance for the blank. Acontrol represents the OD340 absorbance of control.

LDH [5] = settings: original ligand of the LDH co-crystal complex; cited from earlier work
scPTZ-induced seizures [6] = system: scPTZ-induced seizures; set-up: method as in PMID 31539780; settings: reference drug; cited from earlier work
LDH [7] = test: Immunofluorescence staining for LDH in hippocampus; type: in vivo; settings: hippocampus CA1, PTZ model mice
Procedure: Brain samples were extracted, preserved in 4% paraformaldehyde for a day, and subsequently immersed in a 30% sucrose solution to dehydrate. Post OCT embedding, slices of brain tissue measuring 16 μm in thickness were sliced using a cryostat. Following the permeabilization using 0.5% TritonX-100 and subsequent blocking with 10% goat serum at ambient temperature to remove nonspecific staining, the tissue samples were subjected to overnight incubation at 4 °C with the primary antibody, LDHA (Proteintech (Rosemont, IL, USA), Cat No. 19987-1-AP, Lot: 00106920, rabbit anti-rat 1:200). On the next day, the slides underwent incubation using a secondary antibody. The slides underwent counterstaining using DAPI. […] slices were examined and visualized utilizing the VS200-BU Slide Scanner (Olympus Corporation, Tokyo, Japan).

[8] = system: neurons in CA1 and CA3 regions of the hippocampus; test: Silver staining of hippocampal tissue; type: in vivo; settings: PTZ model mice, compared with PTZ group
Procedure: Following the creation of the PTZ model, a modified version of the silver impregnation staining technique was applied for silver staining, enabling the observation of changes in neuronal fibers and synapses throughout diseases. Brain tissue slices from each mouse, encased in paraffin, underwent deparaffinization using xylene and absolute ethanol, followed by a treatment in acidic formaldehyde, and then incubation in a glycine–silver mixture. Following the application of a reducing solution for staining, the samples were analyzed using an optical microscope. Against a yellow backdrop, nerve cells’ axons, dendrites, collagen fibers, and neurofibrillary tangles were colored in dark brown or black.

mice [9] = system: mice; set-up: method as in PMID 31539780; settings: reference drug; cited from earlier work

Row | Structure (SMILES) | SCPTZ Latent Time (100 mg/kg, s) (scPTZ-induced seizures [1]) [s] | SCPTZ Protective Ratio (100 mg/kg) (scPTZ-induced seizures [1]) | responders at 100 mg/kg ([2]; 100 mg/kg i.p., mice, 0.5 h, read-out: MES model, protected mice/total mice, 0.5 h (converted)) [%] | responders at 100 mg/kg ([2]; 100 mg/kg i.p., mice, 1 h, read-out: MES model, protected mice/total mice, 1 h (converted)) [%] | responders at 100 mg/kg ([2]; 100 mg/kg i.p., mice, 2 h, read-out: MES model, protected mice/total mice, 2 h (converted)) [%] | responders at 100 mg/kg ([2]; 100 mg/kg i.p., mice, 3 h, read-out: MES model, protected mice/total mice, 3 h (converted)) [%] | ED50 ([2]; mice, 95% confidence intervals in parentheses) [mg/kg] | TD50 (mice [3]) | TD50 at 30 min [4] [mg/kg] | LDH Inhibition Ratio (0.1 mM) (LDH enzyme) [%] | IC50 (LDH [5]) [nM] | SCPTZ Latent Time (100 mg/kg, s) (scPTZ-induced seizures [6]) [s] | SCPTZ Protective Ratio (100 mg/kg) (scPTZ-induced seizures [6]) | responders at 100 mg/kg ([2]; 0.5 h, read-out: MES model, protected mice/total mice, 0.5 h) [%] | responders at 100 mg/kg ([2]; 1 h, read-out: MES model, protected mice/total mice, 1 h) [%] | responders at 100 mg/kg ([2]; 2 h, read-out: MES model, protected mice/total mice, 2 h) [%] | responders at 100 mg/kg ([2]; 3 h, read-out: MES model, protected mice/total mice, 3 h) [%] | LDH immunolabelling intensity (LDH [7]) | silver staining, neurons in hippocampal CA1 and CA3 [8] | TD50 (mice [9])
1 | C/C=C/c1ccc(OC(=O)CCCN2CCN(C(=O)/C=C/c3cc(OC)c(OC)c(OC)c3)CC2)c(OC)c1 [A3, methoxy-4-((E)-prop-1-en-1-yl)phenyl 4-(4-((E)-3-(3,4,5-trimethoxyphenyl)acryloyl)piperazin-1-yl)butanoate] | 222.0 ± 14.7 | 1/4 | 100 | 75 | 50 | 25 | 73.3 | weak neurotoxicity | 443 | 37.6 ± 8.1 |  |  |  |  |  |  |  |  |  | 
2 | O=C1N[C@](c2ccc(N3CCOCC3)cc2)(c2ccsc2)CC(O)=C1Sc1ccccc1Cl [GEN-140] |  |  |  |  |  |  |  |  |  |  | 3 |  |  |  |  |  |  |  |  | 
3 | CC(C)(C)C(O)/C=C/c1ccc2c(c1)OCO2 (stereo not drawn) [STP, Stiripentol, reference compound] |  |  |  |  |  |  |  |  |  | 46.1 ± 6.2 |  | 269.5 ± 19.8 | 2/4 | 100 | 50 | 25 | 0 | lower than the values found in the PTZ group | alleviated symptoms | 161.7 (146.2–256.2) mg/kg
